{"source": "patent US4755513A", "about": "“Antimicrobial 1-substituted phenyl-4-oxoquinoline-3-carboxylic acid compounds” (Otsuka Pharmaceutical Company, Limited, priority 1985, dated 1988)", "key": {"[1]": {"test_system": "Staphylococcus aureus FDA 209P", "assay": "MIC by serial dilution method on agar plate", "type": "cell-based", "from_the_text": "(§1) The microorganisms were used in a concentration of 1×10^8 cells/ml (O.D. 660 mμ, 0.07-0.16) and 1×10^6 cells/ml (100 folds dilution)."}, "[2]": {"test_system": "Staphylococcus pyrogens IID S-23", "assay": "MIC by serial dilution method on agar plate", "type": "cell-based", "from_the_text": "as §1"}, "[3]": {"test_system": "Proteus morganii IID Kono", "assay": "MIC by serial dilution method on agar plate", "type": "cell-based", "from_the_text": "(§2) Chemotherapy, 22, 1126-1128 (1974)]. The microorganisms were used in a concentration of 1×10^8 cells/ml (O.D. 660 mμ, 0.07-0.16) and 1×10^6 cells/ml (100 folds dilution)."}, "[4]": {"test_system": "Acinetobacter calcoaceticus AC-54", "assay": "MIC by serial dilution method on agar plate", "type": "cell-based", "from_the_text": "as §2"}, "[5]": {"test_system": "Streptococcus faecalis IFO 12580", "assay": "MIC by serial dilution method on agar plate", "type": "cell-based", "from_the_text": "as §2"}, "[6]": {"test_system": "Pseudomonas aeruginosa E-2", "assay": "MIC by serial dilution method on agar plate", "type": "cell-based", "from_the_text": "as §2"}, "[7]": {"test_system": "Proteus inconstans IFO 12930", "assay": "MIC by serial dilution method on agar plate", "type": "cell-based", "from_the_text": "as §2"}, "[8]": {"test_system": "Bacillus subtilis ATCC 6633", "assay": "MIC by serial dilution method on agar plate", "type": "cell-based", "from_the_text": "as §2"}, "[9]": {"test_system": "Klebsiella pneumoniae NCTC 9632", "assay": "MIC by serial dilution method on agar plate", "type": "cell-based", "from_the_text": "as §2"}, "[10]": {"test_system": "Serratia marcescens IFO 12648", "assay": "MIC by serial dilution method on agar plate", "type": "cell-based", "from_the_text": "as §2"}, "[11]": {"test_system": "Escherichia coli NIHJ JC-2", "assay": "MIC by serial dilution method on agar plate", "type": "cell-based", "from_the_text": "as §2"}, "Escherichia coli No. 29": {"test_system": "Escherichia coli No. 29", "assay": "MIC by serial dilution method on agar plate", "type": "cell-based", "from_the_text": "as §2"}, "[12]": {"test_system": "Pseudomonas aeruginosa ATCC 10145", "assay": "MIC by serial dilution method on agar plate", "type": "cell-based", "from_the_text": "as §2"}, "[13]": {"assay": "Absorption by oral administration in monkey (plasma concentration, thin layer cup bio-assay)", "type": "in vivo", "conditions": "100 mg/kg", "description": "The test compounds were dissolved in 0.1N hydrochloric acid or suspended in 0.5% sodium carboxymethyl cellulose solution. The solution or suspension was administered into stomach of monkey (two monkeys) with cathetel. After the administration of test compounds, the blood was collected from the lower limbs vein at a fixed interval with a syringe treated with heparin. The collected blood was centrifuged at 3,000 r.p.m. for 10 minutes to separate the plasma. The concentration of the test compound was measured by a thin layer cup method (a bio-assay), wherein Bacillus subtilis ATCC 6633 was used as a bacteria for determination. Based on a standard curve, the concentration of test compound in plasma was calculated."}}, "note": "Read-outs that look alike come from different tables or passages of the source.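 For Amount of test compd. in plasma in this document: plasma concentration in γ/ml (µg/mL) rather than the printed ng/mL.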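 For Amount of test compd. in plasma, Average in this document: plasma concentration in γ/ml (µg/mL) rather than the printed ng/mL.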", "data": [{"compound": "6,8-Difluoro-1-(4-fluorophenyl)-7-(1-piperazinyl)-1,4-dihydro-4-oxoquinoline-3-carboxylic acid [Test Compd. No. 2]", "values": [{"measurement": "minimum inhibitory concentration (MIC)", "setting": "[1]; 1 × 10^6 cells/ml", "value": 0.195}, {"measurement": "minimum inhibitory concentration (MIC)", "setting": "[1]; 1 × 10^8 cells/ml", "value": 0.195}, {"measurement": "minimum inhibitory concentration (MIC)", "setting": "[2]; 1 × 10^8 cells/ml", "value": 6.25}, {"measurement": "minimum inhibitory concentration (MIC)", "setting": "[3]; 1 × 10^6 cells/ml", "value": 0.781}, {"measurement": "minimum inhibitory concentration (MIC)", "setting": "[3]; 1 × 10^8 cells/ml", "value": 1.56}, {"measurement": "minimum inhibitory concentration (MIC)", "setting": "[4]; 1 × 10^6 cells/ml", "value": 0.781}, {"measurement": "minimum inhibitory concentration (MIC)", "setting": "[4]; 1 × 10^8 cells/ml", "value": 1.56}, {"measurement": "minimum inhibitory concentration (MIC)", "setting": "[5]; 1 × 10^6 cells/ml", "value": 0.781}, {"measurement": "minimum inhibitory concentration (MIC)", "setting": "[5]; 1 × 10^8 cells/ml", "value": 1.56}, {"measurement": "minimum inhibitory concentration (MIC)", "setting": "[6]; 1 × 10^6 cells/ml", "value": 1.56}, {"measurement": "minimum inhibitory concentration (MIC)", "setting": "[6]; 1 × 10^8 cells/ml", "value": 1.56}, {"measurement": "minimum inhibitory concentration (MIC)", "setting": "[7]; 1 × 10^6 cells/ml", "value": 1.56}, {"measurement": "minimum inhibitory concentration (MIC)", "setting": "[7]; 1 × 10^8 cells/ml", "value": 3.12}, {"measurement": "minimum inhibitory concentration (MIC)", "setting": "[8]; 1 × 10^6 cells/ml", "value": 0.097}, {"measurement": "minimum inhibitory concentration (MIC)", "setting": "[8]; 1 × 10^8 cells/ml", "value": 0.195}, {"measurement": "minimum inhibitory concentration (MIC)", "setting": "[9]; 1 × 10^6 cells/ml", "value": 0.097}, {"measurement": "minimum inhibitory concentration (MIC)", "setting": "[9]; 1 × 10^8 cells/ml", "value": 0.195}, {"measurement": "minimum inhibitory concentration (MIC)", "setting": "[10]; 1 × 10^6 cells/ml", "value": 0.39}, {"measurement": "minimum inhibitory concentration (MIC)", "setting": "[10]; 1 × 10^8 cells/ml", "value": 0.781}, {"measurement": "minimum inhibitory concentration (MIC)", "setting": "[11]; 1 × 10^6 cells/ml", "value": "< 0.048"}, {"measurement": "minimum inhibitory concentration (MIC)", "setting": "[11]; 1 × 10^8 cells/ml", "value": "< 0.048"}, {"measurement": "minimum inhibitory concentration (MIC)", "setting": "Escherichia coli No. 29; 1 × 10^6 cells/ml", "value": "< 0.048"}, {"measurement": "minimum inhibitory concentration (MIC)", "setting": "Escherichia coli No. 29; 1 × 10^8 cells/ml", "value": "< 0.048"}, {"measurement": "minimum inhibitory concentration (MIC)", "setting": "[12]; 1 × 10^6 cells/ml", "value": 1.56}, {"measurement": "minimum inhibitory concentration (MIC)", "setting": "[12]; 1 × 10^8 cells/ml", "value": 1.56}]}, {"compound": "CN1CCN(c2cc3c(cc2F)c(=O)c(C(=O)O)cn3-c2ccc(O)cc2)CC1", "note": "[C]", "values": [{"measurement": "concentration at 0.5 h", "setting": "[13]; Run 1, 0.5 hour, read-out: Amount of test compd. in plasma", "value": 360, "unit": "ng/mL"}, {"measurement": "concentration at 1 h", "setting": "[13]; Run 1, 1 hour, read-out: Amount of test compd. in plasma", "value": 490, "unit": "ng/mL"}, {"measurement": "concentration at 2 h", "setting": "[13]; Run 1, 2 hour, read-out: Amount of test compd. in plasma", "value": 650, "unit": "ng/mL"}, {"measurement": "concentration at 4 h", "setting": "[13]; Run 1, 4 hour, read-out: Amount of test compd. in plasma", "value": 960, "unit": "ng/mL"}, {"measurement": "concentration at 7 h", "setting": "[13]; Run 1, 7 hour, read-out: Amount of test compd. in plasma", "value": 950, "unit": "ng/mL"}, {"measurement": "concentration at 24 h", "setting": "[13]; Run 1, 24 hour, read-out: Amount of test compd. in plasma", "value": 900, "unit": "ng/mL"}, {"measurement": "concentration at 0.5 h", "setting": "[13]; Run 2, 0.5 hour, read-out: Amount of test compd. in plasma", "value": "< 390", "unit": "ng/mL"}, {"measurement": "concentration at 1 h", "setting": "[13]; Run 2, 1 hour, read-out: Amount of test compd. in plasma", "value": "< 390", "unit": "ng/mL"}, {"measurement": "concentration at 2 h", "setting": "[13]; Run 2, 2 hour, read-out: Amount of test compd. in plasma", "value": "< 390", "unit": "ng/mL"}, {"measurement": "concentration at 4 h", "setting": "[13]; Run 2, 4 hour, read-out: Amount of test compd. in plasma", "value": "< 390", "unit": "ng/mL"}, {"measurement": "concentration at 7 h", "setting": "[13]; Run 2, 7 hour, read-out: Amount of test compd. in plasma", "value": "< 390", "unit": "ng/mL"}, {"measurement": "concentration at 24 h", "setting": "[13]; Run 2, 24 hour, read-out: Amount of test compd. in plasma", "value": "< 390", "unit": "ng/mL"}, {"measurement": "concentration at 0.5 h", "setting": "[13]; average of two runs, 0.5 hour, read-out: Amount of test compd. in plasma, Average", "value": "< 280", "unit": "ng/mL"}, {"measurement": "concentration at 1 h", "setting": "[13]; average of two runs, 1 hour, read-out: Amount of test compd. in plasma, Average", "value": "< 350", "unit": "ng/mL"}, {"measurement": "concentration at 2 h", "setting": "[13]; average of two runs, 2 hour, read-out: Amount of test compd. in plasma, Average", "value": "< 430", "unit": "ng/mL"}, {"measurement": "concentration at 4 h", "setting": "[13]; average of two runs, 4 hour, read-out: Amount of test compd. in plasma, Average", "value": "< 580", "unit": "ng/mL"}, {"measurement": "concentration at 7 h", "setting": "[13]; average of two runs, 7 hour, read-out: Amount of test compd. in plasma, Average", "value": "< 580", "unit": "ng/mL"}, {"measurement": "concentration at 24 h", "setting": "[13]; average of two runs, 24 hour, read-out: Amount of test compd. in plasma, Average", "value": "< 550", "unit": "ng/mL"}, {"measurement": "minimum inhibitory concentration (MIC)", "setting": "[1]; 1 × 10^6 cells/ml", "value": "< 0.048"}, {"measurement": "minimum inhibitory concentration (MIC)", "setting": "[1]; 1 × 10^8 cells/ml", "value": 0.097}, {"measurement": "minimum inhibitory concentration (MIC)", "setting": "[2]; 1 × 10^6 cells/ml", "value": 0.78}, {"measurement": "minimum inhibitory concentration (MIC)", "setting": "[2]; 1 × 10^8 cells/ml", "value": 1.56}, {"measurement": "minimum inhibitory concentration (MIC)", "setting": "[3]; 1 × 10^6 cells/ml", "value": 0.39}, {"measurement": "minimum inhibitory concentration (MIC)", "setting": "[3]; 1 × 10^8 cells/ml", "value": 0.39}, {"measurement": "minimum inhibitory concentration (MIC)", "setting": "[4]; 1 × 10^6 cells/ml", "value": 0.195}, {"measurement": "minimum inhibitory concentration (MIC)", "setting": "[4]; 1 × 10^8 cells/ml", "value": 0.39}, {"measurement": "minimum inhibitory concentration (MIC)", "setting": "[6]; 1 × 10^6 cells/ml", "value": 0.39}, {"measurement": "minimum inhibitory concentration (MIC)", "setting": "[6]; 1 × 10^8 cells/ml", "value": 0.78}, {"measurement": "minimum inhibitory concentration (MIC)", "setting": "[7]; 1 × 10^6 cells/ml", "value": 0.39}, {"measurement": "minimum inhibitory concentration (MIC)", "setting": "[7]; 1 × 10^8 cells/ml", "value": 0.78}, {"measurement": "minimum inhibitory concentration (MIC)", "setting": "[8]; 1 × 10^6 cells/ml", "value": 0.097}, {"measurement": "minimum inhibitory concentration (MIC)", "setting": "[8]; 1 × 10^8 cells/ml", "value": 0.097}, {"measurement": "minimum inhibitory concentration (MIC)", "setting": "[9]; 1 × 10^6 cells/ml", "value": "< 0.048"}, {"measurement": "minimum inhibitory concentration (MIC)", "setting": "[9]; 1 × 10^8 cells/ml", "value": 0.097}, {"measurement": "minimum inhibitory concentration (MIC)", "setting": "[10]; 1 × 10^6 cells/ml", "value": 0.195}, {"measurement": "minimum inhibitory concentration (MIC)", "setting": "[10]; 1 × 10^8 cells/ml", "value": 0.39}, {"measurement": "minimum inhibitory concentration (MIC)", "setting": "[11]; 1 × 10^6 cells/ml", "value": 0.097}, {"measurement": "minimum inhibitory concentration (MIC)", "setting": "[11]; 1 × 10^8 cells/ml", "value": 0.097}, {"measurement": "minimum inhibitory concentration (MIC)", "setting": "Escherichia coli No. 29; 1 × 10^6 cells/ml", "value": "< 0.048"}, {"measurement": "minimum inhibitory concentration (MIC)", "setting": "Escherichia coli No. 29; 1 × 10^8 cells/ml", "value": 0.097}, {"measurement": "minimum inhibitory concentration (MIC)", "setting": "[12]; 1 × 10^6 cells/ml", "value": 0.78}, {"measurement": "minimum inhibitory concentration (MIC)", "setting": "[12]; 1 × 10^8 cells/ml", "value": 1.56}]}]}
